One assay deals with Chlorella sp. ATCC 7516. The experiment in a line: Algal efficacy testing of dry paint film (modified ASTM 5589, 6-well plates). It counts as cell-based. The settings on record: 4 weeks. Here is the method: (§1) Slurries containing 34.3% carbendazim were post added to a white, acrylic/silicone based outdoor paint free of biocides to give a total active ingredient concentration of 10000 and 1000 ppm respectively. These paints were then diluted with an antimicrobial free acrylic/silicone based paint and mixed to prepare targeted concentrations of antimicrobial compounds for the testing. The total biocides concentrations tested were 125, 250, 500, 1000, 2000 and 5000 ppm. After biocides addition or dilution, the paints were mixed 90 seconds with the horse power shaker (AXEL 75M3372/Agitateur SO-10MI) until uniformity was achieved. Paints containing different antimicrobial compounds at the same levels were mixed together in order to obtain the desired ratio of antimicrobial compounds. After one day, the paints were applied to Schleicher & Schuell filter paper at 280 μm wet film thickness and dried for 3 days at room temperature avoiding direct exposure to sunlight. Square discs (1.6 cm×1.6 cm) were cut out from each panel and were used as the substrate for algal efficacy tests. This sample size allowed for an agar border when the sample disc was placed into the well of the test plate.
(§2) Algal efficacy was tested according to modified ASTM 5589 which is a standard accelerated test method for determining resistance of various coatings (including paints) to algal defacement. To accommodate for high-throughput screening, this method was scaled down from petri dishes to 6-well plates. Bold Modified Basal Freshwater Nutrient Solution was used as growth medium. A single coated filter paper coupon was placed with a pair of sterile forceps at the center of the agar plug (on top) with the painted surface facing upwards. Algal inoculums were prepared by mixing equal concentrations (1×10^6 cfu/ml) and equal volumes of exponentially growing algae cultures.
(§3) Each well that contains a tested coupon was inoculated with 1750 μl of algal suspensions (1×10^6 cfu/ml) making sure that the whole surface (paint film as well as the agar surrounding it) was evenly covered. The plates were incubated at room temp (21° C. -25° C.) with cyclic exposure to light and dark phases, for a period of four weeks.
(§4) At the end of the four week incubation period, the samples were scored for percent inhibition regarding visible algal growth compared to the blank sample (0% inhibition).
(§5) The SI is calculated based on F. C. Kull et.
(§6) The minimal targeted inhibition was set at 75%, meaning a coupon with at least 75% algal growth inhibition was considered as a pass.

Assay [1] concerns Stichococcus bacillaris SAG 379-1a CCAP 379/1a. The assay is described as above. The format is cell-based. The settings on record: 4 weeks. Here is the method: as §1, §2, §3, §4, §5, §6
Where [2] appears, read: pass level 75% inhibition, total biocide in liquid paint.

Usually inhibition stands for the percentage by which the read-out fell short of the control. A higher inhibition goes with a strong effect.

Take `O=c1[nH]c2c(c(=O)n1C1CCCCC1)CCC2` [Lenacil, 3-cyclohexyl-1,5,6,7-tetrahydrocyclopentapyrimidine-2,4(3H)-dione]: the inhibition at 5000 ppm in the assay with Chlorella sp. ATCC 7516 (672 h, total conc 5000 ppm, visible algal growth vs blank) turned out to be 45%; in assay [1] (Stichococcus bacillaris, 672 h, total conc 5000 ppm, visible algal growth vs blank) it was 65%.
In the case of `COC(=O)Nc1nc2ccccc2[nH]1` [Carbendazim, methylbenzimidazol-2-ylcarbamate], the “Total conc (concentration used for SI; lowest passing level or highest level without pass)” value (in the assay with Chlorella sp. ATCC 7516 (setting [2]); in assay [1] (setting [2])) was 2000 ppm throughout. Also, the inhibition at 2000 ppm with Chlorella sp. ATCC 7516 (672 h, total conc 2000 ppm, visible algal growth vs blank) amounted to 45%; in assay [1] (Stichococcus bacillaris, 672 h, total conc 2000 ppm, visible algal growth vs blank), 45%.

The values are drawn from patent US9408388B2 (Dow Global Technologies LLC, priority 2013, dated 2016).
